Where two headings read alike, the source gives them in different places.
Columns and labels:
Format in all cases: biochemical, C. elegans
[1] = target: T1, Fhit active site of NitFhit (Caenorhabditis elegans, UniProt O76463); experiment: Nonlabeled compounds as competitive inhibitors of ApppBODIPY hydrolysis
T1 construct: generated an NdeI site at the initiator codon and an XhoI site 3′ of the stop codon; made in house; host or cells: E. coli strain ER2566
T1 sequence (O76463 1-440): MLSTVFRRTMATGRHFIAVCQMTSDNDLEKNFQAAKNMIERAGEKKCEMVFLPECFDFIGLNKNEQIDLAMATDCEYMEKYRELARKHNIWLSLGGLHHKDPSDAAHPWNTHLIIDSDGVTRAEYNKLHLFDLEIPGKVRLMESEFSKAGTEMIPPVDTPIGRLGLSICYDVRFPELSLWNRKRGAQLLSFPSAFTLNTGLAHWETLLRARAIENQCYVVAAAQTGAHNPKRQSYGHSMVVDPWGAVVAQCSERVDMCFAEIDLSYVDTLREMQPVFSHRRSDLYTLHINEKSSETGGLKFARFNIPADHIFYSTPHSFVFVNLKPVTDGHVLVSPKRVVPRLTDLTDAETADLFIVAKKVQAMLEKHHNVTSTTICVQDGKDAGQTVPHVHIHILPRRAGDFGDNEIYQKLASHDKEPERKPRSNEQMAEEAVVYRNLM

[2] = target: T1, Fhit active site of NitFhit; experiment: GpppBODIPY initial rate assay of the Fhit active site of NitFhit
[3] = target: T1, Fhit active site of NitFhit; experiment: ApppBODIPY substrate decay assay of the Fhit active site of NitFhit; conditions: ApppBODIPY as substrate; % of the activity of human Fhit
[4] = initial rates, GpppBODIPY titrated 40 μM to 2.5 μM, 0.5 pmol enzyme
[5] = titration of nonlabeled compound into 1.5 μM ApppBODIPY assays, five competitor concentrations, read-out: Kl

| Molecule | Ki [1, 5] | Ki [1] | further results |
| --- | --- | --- | --- |
| Nc1nc(O)c2ncn([C@@H]3O[C@H](COP(=O)(S)OP(=O)(O)OP(=O)(O)O)[C@@H](O)[C@H]3O)c2n1 (some centres unmarked) [GTP-αS] |  | 481 ± 27 µM |  |
| Gppp-S-(4-4-fluoro-5,7-dimethyl-4-bora-3a,4a-diaza-s-indacine-3-yl) [GpppBODIPY] |  |  | activity of worm NitFhit relative to human Fhit on the substrate (kcat/Km) ([2]; GpppBODIPY as substrate, % of the activity of human Fhit): 109%; Km [2, 4]: 3.7 µM; kcat [2, 4]: 2.4 s⁻¹ |
| Appp-S-(4-4-fluoro-5,7-dimethyl-4-bora-3a,4a-diaza-s-indacine-3-yl) [ApppBODIPY] |  |  | activity of worm NitFhit relative to human Fhit on the substrate (kcat/Km) [3]: 22% |
| Nc1ncnc2c1ncn2[C@@H]1O[C@H](COP(=O)(O)O)[C@@H](O)[C@H]1O [AMP] |  | 153 ± 13 µM |  |
| Nc1ncnc2c1ncn2[C@@H]1O[C@H](COP(O)(=S)OP(=O)(O)OP(=O)(O)O)[C@@H](O)[C@H]1O (some centres unmarked) [ATP-αS] |  | 287 ± 73 µM |  |
| Nc1ncnc2c1ncn2[C@@H]1O[C@H](COP(=O)(O)OP(=O)(O)OP(=O)(O)OC[C@H]2O[C@@H](n3cnc4c(N)ncnc43)[C@H](O)[C@@H]2O)[C@@H](O)[C@H]1O [ApppA] | 4.2 ± 0.4 µM |  |  |
| O=P(O)(O)OP(=O)(O)O [pyrophosphate] |  | 78 ± 12 µM |  |

More lines, main results first:

| Ki [1, 5] | Molecule | Ki [1] | further results |
| --- | --- | --- | --- |
| 4.5 ± 0.7 µM | Nc1ncnc2c1ncn2[C@@H]1O[C@H](COP(=O)(O)OP(=O)(O)OP(=O)(O)OP(=O)(O)OP(=O)(O)OC[C@H]2O[C@@H](n3cnc4c(N)ncnc43)[C@H](O)[C@@H]2O)[C@@H](O)[C@H]1O [ApppppA] |  |  |
| 2.7 ± 0.3 µM | Nc1ncnc2c1ncn2[C@@H]1O[C@H](COP(=O)(O)OP(=O)(O)OP(=O)(O)OP(=O)(O)OC[C@H]2O[C@@H](n3cnc4c(N)ncnc43)[C@H](O)[C@@H]2O)[C@@H](O)[C@H]1O [AppppA] |  |  |
